# The supplement of paper PMC11451515
# System: P12-Ichikawa
# Experiment: cell viability relative to DMSO control; higher = less cytotoxic
# Settings: 48 h
# Method in brief: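 Library compounds in DMSO were pin-dosed in an 11-point threefold series (47 μM to 0.79 nM) onto leukemia cells in 1536-well plates (5 μl). Plates held 500 cells/well of NOMO1 or SEM or 1000 cells/well of P12-Ichikawa, each adapted for at least four passages in each medium. Luminescence was read with CellTiter-Glo One after 48 h at 37°C. Viability means the per-plate percentage relative to DMSO wells, using cell-free wells as background.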
# [1] = HPLM + 10% dialyzed FBS, 0.000781 µM
# [2] = HPLM + 10% dialyzed FBS, 0.00234 µM
# [3] = HPLM + 10% dialyzed FBS, 0.00702 µM
# [4] = HPLM + 10% dialyzed FBS, 0.0211 µM
# [5] = HPLM + 10% dialyzed FBS, 0.0632 µM
# [6] = HPLM + 10% dialyzed FBS, 0.19 µM
# [7] = HPLM + 10% dialyzed FBS, 0.569 µM
# [8] = HPLM + 10% dialyzed FBS, 1.71 µM
# [9] = HPLM + 10% dialyzed FBS, 5.12 µM
# [10] = HPLM + 10% dialyzed FBS, 15.4 µM
# [11] = HPLM + 10% dialyzed FBS, 46.1 µM
# [12] = RPMI 5 mM glucose + 10% FBS, 0.000781 µM
# [13] = RPMI 5 mM glucose + 10% FBS, 0.00234 µM
# [14] = RPMI 5 mM glucose + 10% FBS, 0.00702 µM
# [15] = RPMI 5 mM glucose + 10% FBS, 0.0211 µM
# [16] = RPMI 5 mM glucose + 10% FBS, 0.0632 µM
# [17] = RPMI 5 mM glucose + 10% FBS, 0.19 µM
# [18] = RPMI 5 mM glucose + 10% FBS, 0.569 µM
# [19] = RPMI 5 mM glucose + 10% FBS, 1.71 µM
# [20] = RPMI 5 mM glucose + 10% FBS, 5.12 µM
# [21] = RPMI 5 mM glucose + 10% FBS, 15.4 µM
# [22] = RPMI 5 mM glucose + 10% FBS, 46.1 µM
# [23] = RPMI 5 mM glucose + 10% dialyzed FBS, 0.000781 µM
# [24] = RPMI 5 mM glucose + 10% dialyzed FBS, 0.00234 µM
# [25] = RPMI 5 mM glucose + 10% dialyzed FBS, 0.00702 µM
# [26] = RPMI 5 mM glucose + 10% dialyzed FBS, 0.0211 µM
# [27] = RPMI 5 mM glucose + 10% dialyzed FBS, 0.0632 µM
# [28] = RPMI 5 mM glucose + 10% dialyzed FBS, 0.19 µM
# [29] = RPMI 5 mM glucose + 10% dialyzed FBS, 0.569 µM
# [30] = RPMI 5 mM glucose + 10% dialyzed FBS, 1.71 µM
# [31] = RPMI 5 mM glucose + 10% dialyzed FBS, 5.12 µM
# [32] = RPMI 5 mM glucose + 10% dialyzed FBS, 15.4 µM
# [33] = RPMI 5 mM glucose + 10% dialyzed FBS, 46.1 µM
SMILES,cell viability [1] [%],cell viability [2] [%],cell viability [3] [%],cell viability [4] [%],cell viability [5] [%],cell viability [6] [%],cell viability [7] [%],cell viability [8] [%],cell viability [9] [%],cell viability [10] [%],cell viability [11] [%],cell viability [12] [%],cell viability [13] [%],cell viability [14] [%],cell viability [15] [%],cell viability [16] [%],cell viability [17] [%],cell viability [18] [%],cell viability [19] [%],cell viability [20] [%],cell viability [21] [%],cell viability [22] [%],cell viability [23] [%],cell viability [24] [%],cell viability [25] [%],cell viability [26] [%],cell viability [27] [%],cell viability [28] [%],cell viability [29] [%],cell viability [30] [%],cell viability [31] [%],cell viability [32] [%],cell viability [33] [%]
COC1=CC=C2/C3=N/CCN3\C(=N/C2=C1OC)NC(=O)C4=CC=CN=C4,113,124,110,117,129,118,113,123,108,92.6,89.7,108,110,115,108,114,115,104,102,78.8,73.4,58,111,120,115,119,115,117,111,105,97.3,86.1,65.9
CC(C)OC1=CC=C2C(=C1)O\C=C(/C2=O)C3=CC=CC=C3,118,126,122,128,120,119,124,117,113,118,112,123,118,127,128,131,122,121,123,115,110,113,127,121,122,116,132,110,122,115,119,92.4,110
C[C@H]1COC/2=C1/C(=O)C(=O)C3=C4CCCC(C)(C)C4=CC=C23,112,118,121,129,127,134,137,124,129,118,94,–,–,–,–,–,–,–,–,–,–,–,–,–,–,–,–,–,–,–,–,–,–
CC(C)(C)[C@H](NC(=O)c1ccc(N)c(Cl)c1)C(=O)N1CCC[C@H]1C(=O)N[C@H](C#N)CC(=O)O,121,126,123,127,131,127,130,126,32.8,14.4,10.8,116,124,130,133,126,139,133,133,49.9,22.6,15.5,108,123,121,133,131,130,133,127,102,52.1,16.7
OCCn1cc(-c2cnc3nnn(Cc4ccc5ncccc5c4)c3n2)cn1,116,116,116,110,112,110,110,107,103,98.9,75.4,108,115,114,107,106,122,115,101,100,99.6,86.5,108,122,114,118,122,115,115,109,112,96.9,88.6
CN(C)C1=C(Br)C=C(C=C1)C\2NC3=C(\C4=C2C(=O)CC(C)(C)C4)C5=CC=CC=C5C=C3 (stereo not given),116,96.7,118,116,116,113,106,108,107,103,108,112,115,116,104,111,100,109,101,105,102,107,112,111,110,113,117,109,102,111,101,97,104
COC1=CC=C2CN(C)CC[C@@]34\C=C/[C@H](O)C[C@@H]3OC1=C24,–,–,–,–,–,–,–,–,–,–,–,–,–,–,–,–,–,–,–,–,–,–,121,124,118,117,130,120,119,121,82.6,102,111
COc1ncc(-c2ccc3c(Nc4cc(Oc5cc(F)cc(F)c5)cc(C(=O)O)c4)c([S+](=O)([O-])NC4CC4)cnc3c2)c(OC)n1,94.1,95.9,92.3,91.9,91.5,94.2,93.3,91.7,87.9,78.6,82.3,84,87.8,88.1,93.1,97.9,84.2,82.2,83.1,79.6,75.3,76.5,91.1,43,87.7,89.4,92.7,91,91.3,88.4,84.6,82.8,81.8
